Assay results published in article PMC6152673, “Discovery of Indeno[1,2-c]quinoline Derivatives as Potent Dual Antituberculosis and Anti-Inflammatory Agents” (Molecules : A Journal of Synthetic Chemistry and Natural …, 2017).
≈ marks a conversion by molar mass, not a printed value.

How the values were obtained:
[1] = system: fMLF-activated human neutrophils (superoxide anion generation); assay: Superoxide anion generation in fMLF-activated human neutrophils; format: cell-based; settings: for IC50: Neutrophil, fMLF/cytochalasin B-activated human neutrophils, mean ± SEM (n = 3); for Inhibitory effect on superoxide anion generation (in words): fMLF-activated human neutrophils
Procedure: (§1) Superoxide generation and elastase release were carried out according to the procedures described previously. Neutrophils (6 × 10^5/mL) were equilibrated at 37 °C for 2 min and incubated with compounds for 5 min. Neutrophils were then activated by fMLF (100 nM) in the pretreatment of cytochalasin B (1 µg/mL for superoxide generation and 0.5 µg/mL for elastase release) for 10 min. Superoxide anion production was assayed by monitoring the superoxide dismutase-inhibitable reduction of ferricytochrome C. Elastase release was performed using MeO-Suc-Ala-Ala-Pro-Valp-nitroanilide as the elastase substrate.

[2] = system: Vero cells; assay: Vero cell viability (MTT, Promega Cell Titer 96)
[3] = system: fMLF-activated human neutrophils (neutrophil elastase release); assay: Neutrophil elastase release in fMLF-activated human neutrophils; format: cell-based; settings: for IC50: Neutrophil, fMLF/cytochalasin B-activated human neutrophils, mean ± SEM (n = 3); for Inhibitory effect on NE release (in words): fMLF-activated human neutrophils
Procedure: as §1

[4] = system: M. tuberculosis H37Rv (ATCC 27294); assay: Anti-Mycobacterium activity, broth microdilution Microplate Alamar Blue Assay (MABA); format: cell-based; settings: MIC = lowest concentration effecting 90% reduction in fluorescence

SMILES	IC50 [1] [nM]	Survival Rate of Vero Cells @ 20 μg/mL [2] [%]	IC50 [3] [nM]	MIC [4] [µg/mL]	melting point [°C]	Inhibitory effect on superoxide anion generation (in words) [1]	Inhibitory effect on NE release (in words) [3]
COc1ccc2c(c1)C(=O)c1c-2c(N2CCC(O)CC2)nc2ccccc12 [Compound 4d, 6-(4-Hydroxypiperidin-1-yl)-9-methoxy-11H-indeno[1,2-c]quinolin-11-one]	2820 ± 300	84.72	2050 ± 240	7.74 (≈ 21.5 µM)	–	–	–
NC(=S)N/N=C1\c2ccccc2-c2c(N3CCC(O)CC3)nc3ccccc3c21 [Compound 10, (E)-2-[6-(4-Hydroxypiperidin-1-yl)-11H-indeno[1,2-c]quinolin-11-ylidene]hydrazine Carbothioamide]	2410 ± 360	80.28	> 10000	> 20	304 to 305	–	–
O=C1c2ccccc2-c2c(N3CCCC3)nc3ccccc3c21 [Compound 3a, 6-(Pyrrolidin-1-yl)-11H-indeno[1,2-c]quinolin-11-one]	> 10000	88.61	> 10000	4.56 (≈ 15.2 µM)	163 to 164	–	–
O=C1c2ccccc2-c2c(N3CCC(O)CC3)nc3ccccc3c21 [Compound 3d, 6-(4-Hydroxypiperidin-1-yl)-11H-indeno[1,2-c]quinolin-11-one]	1780 ± 440	91.23	2200 ± 690	2.09 (≈ 6.33 µM)	208	–	–
COc1ccc2c(c1)C(=O)c1c-2c(N2CCC(CO)CC2)nc2ccccc12 [Compound 4f, 6-[4-(Hydroxymethyl)piperidin-1-yl]-9-methoxy-11H-indeno[1,2-c]quinolin-11-one]	1930 ± 920	90.26	880 ± 300	> 20	218 to 219	–	–
OC1CCN(c2nc3ccccc3c3c2-c2ccccc2C3)CC1 [Compound 5, 1-(11H-Indeno[1,2-c]quinolin-6-yl)piperidin-4-ol]	4020 ± 1080	85.41	5290 ± 480	18 (≈ 56.9 µM)	–	weakly active	weakly active
CC1(O)c2ccccc2-c2c(N3CCC(O)CC3)nc3ccccc3c21 (centres unmarked) [Compound 6, 6-(4-Hydroxypiperidin-1-yl)-11-methyl-11H-indeno[1,2-c]quinolin-11-ol]	> 10000	89.83	> 10000	> 20	146 to 147	inactive	inactive
O=C1c2ccccc2-c2c(N3CCCC(CO)C3)nc3ccccc3c21 (centres unmarked) [Compound 3g, 6-(3-Piperidinemethano-1-yl)-11H-indeno[1,2-c]quinolin-11-one]	2770 ± 470	92.25	2120 ± 1190	3.07 (≈ 8.91 µM)	220 to 221	–	–
COc1ccc2c(c1)C(=O)c1c-2c(N2CCCC2)nc2ccccc12 [Compound 4a, 9-Methoxy-6-(pyrrolidin-1-yl)-11H-indeno[1,2-c]quinolin-11-one]	> 10000	89.62	> 10000	17 (≈ 51.5 µM)	–	–	–
COc1ccc2c(c1)C(=O)c1c-2c(N2CCCC(CO)C2)nc2ccccc12 (centres unmarked) [Compound 4g, 6-[3-(Hydroxymethyl)piperidin-1-yl]-9-methoxy-11H-indeno[1,2-c]quinolin-11-one]	680 ± 140	87.60	460 ± 80	> 20	243 to 244	–	–
O=C1c2ccccc2-c2c(N3CCC(CO)CC3)nc3ccccc3c21 [Compound 3f, 6-(4-Piperidinemethano-1-yl)-11H-indeno[1,2-c]quinolin-11-one]	3370 ± 170	91.11	4500 ± 1320	3.98 (≈ 11.6 µM)	223 to 224	–	–
O=C1c2ccccc2-c2c(N3CCCCC3)nc3ccccc3c21 [Compound 3b, 6-(Piperidin-1-yl)-11H-indeno[1,2-c]quinolin-11-one]	> 10000	96.18	> 10000	4.93 (≈ 15.7 µM)	165 to 166	–	–
O/N=C1\c2ccccc2-c2c(N3CCC(O)CC3)nc3ccccc3c21 [Compound 7, (E)-6-(4-Hydroxypiperidin-1-yl)-11H-indeno[1,2-c]quinolin-11-one Oxime]	830 ± 470	84.14	1390 ± 640	> 20	155 to 156	comparable anti-inflammatory activity	comparable anti-inflammatory activity
O=C(N/N=C1\c2ccccc2-c2c(N3CCC(O)CC3)nc3ccccc3c21)c1ccncc1 [Compound 12, (E)-N′-[6-(4-Hydroxypiperidin-1-yl)-11H-indeno[1,2-c]quinolin-11-ylidene]isonicotino Hydrazide]	1720 ± 230	94.25	1760 ± 490	0.96 (≈ 2.14 µM)	282 to 283	–	–
CO/N=C1\c2ccccc2-c2c(N3CCC(O)CC3)nc3ccccc3c21 [Compound 8, (E)-6-(4-Hydroxypiperidin-1-yl)-11H-indeno[1,2-c]quinolin-11-one O-methyl Oxime]	2680 ± 950	91.48	2130 ± 920	> 20	183 to 184	comparable anti-inflammatory activity	comparable anti-inflammatory activity
NC(=O)N/N=C1\c2ccccc2-c2c(N3CCC(O)CC3)nc3ccccc3c21 [Compound 9, (E)-2-[6-(4-Hydroxypiperidin-1-yl)-11H-indeno[1,2-c]quinolin-11-ylidene]hydrazine Carboxamide]	3640 ± 1430	81.20	> 10000	> 20	289 to 290	–	–
O=C1c2ccccc2-c2c(N3CCCC(O)C3)nc3ccccc3c21 (centres unmarked) [Compound 3e, 6-(3-Hydroxypiperidin-1-yl)-11H-indeno[1,2-c]quinolin-11-one]	2900 ± 110	87.78	2800 ± 90	4.97 (≈ 15 µM)	211 to 212	–	–
NNC(=O)c1ccncc1 [INH, isoniazid, reference compound]	–	84.80	–	0.8 to 1.2 (≈ 5.83 to 8.75 µM)	–	–	–
COc1ccc2c(c1)C(=O)c1c-2c(N2CCCCC2)nc2ccccc12 [Compound 4b]	> 10000	99.55	> 10000	> 20	–	–	–
O=C1c2ccccc2-c2c(N3CCOCC3)nc3ccccc3c21 [Compound 3c, 6-(Morpholino-1-yl)-11H-indeno[1,2-c]quinolin-11-one]	> 10000	91.19	> 10000	3.12 (≈ 9.86 µM)	171 to 173	–	–
O=C(N/N=C1\c2ccccc2-c2c(N3CCC(O)CC3)nc3ccccc3c21)c1ccccc1 [Compound 11, (E)-N′-[6-(4-Hydroxypiperidin-1-yl)-11H-indeno[1,2-c]quinolin-11-ylidene]benzohydrazide]	1670 ± 870	89.55	> 10000	1.98 (≈ 4.41 µM)	258 to 259	–	inactive
COc1ccc2c(c1)C(=O)c1c-2c(N2CCOCC2)nc2ccccc12 [Compound 4c]	> 10000	94.47	> 10000	> 20	–	–	–
COc1ccc2c(c1)C(=O)c1c-2c(N2CCCC(O)C2)nc2ccccc12 (centres unmarked) [Compound 4e, 6-(3-Hydroxypiperidin-1-yl)-9-methoxy-11H-indeno[1,2-c]quinolin-11-one]	1890 ± 650	87.59	2930 ± 700	19.1 (≈ 53 µM)	191 to 192	–	–
